# Results: patent EP4782437A1, “HETEROARYL COMPOUND, AND PREPARATION METHOD THEREFOR AND USE THEREOF IN MEDICINE” (Jiangsu Hengrui Pharmaceuticals Co., Ltd., priority 2023, dated 2025)
# Assays:
# hERG potassium channels = hERG potassium channels (Homo sapiens, UniProt Q12809); experiment: in vitro
# mouse RPA model = experiment: Efficacy in mouse RPA model (acute urticaria induced by OVA antigen and anti-OVA IgG); format: in vivo, C57BL/6N mice; conditions: single dose, p.o.; for inhibition of OVA-induced skin swelling in mice: compared with the model group
# Method: To evaluate the efficacy of compound 3 in a mouse RPA model.
# The administration volume of the vehicle was 10 ml/kg, and that of compound 3 was 20 ml/kg. The vehicle consisted of 0.5% MC + 0.5% Tween 80 + 99% water.
# Thirty-three female C57BL/6N mice weighing 18-20 g were purchased from Vital River Laboratories. Animal production license No.: SCXK (Zhe) 2024-0001; animal qualification certificate No.: 20240229Abzz0619000122. The mice were housed in an SPF-grade animal facility under a 12/12-hour light/dark cycle, with a constant temperature of 23°C ± 1°C and a relative humidity of 50-60%. Food and water were provided ad libitum.
# After acclimatisation, the mice were grouped and administered as follows: Table 4. Animal grouping and dosing regimen for in vivo efficacy experiment
# After acclimatisation, the mice were shaved on the back one day prior to the experiment for skin preparation. On the day of the experiment, the mice were administered the vehicle control or compound 3 via oral gavage at administration volumes of 10 ml/kg and 20 ml/kg, respectively. Two hours post-administration, the mice were anaesthetised with isoflurane, and the thickness of the dorsal skin was measured using a vernier calliper. Upon completion of the measurement, 30 µg of mouse anti-OVA IgG was intradermally injected into the dorsal skin of the mice, while an equal volume of PBS was injected into the control group. Simultaneously, 200 µl of 2 mg/ml OVA antigen was intravenously injected. After 3 hours, the thickness of the skin swelling at the modelling site was measured.
# Data of relevant indicators for animals in each group were expressed as mean ± standard deviation (Mean ± SD) and statistically analysed and plotted using GraphPad software.
# [1] = system: B cell activation in human whole blood; experiment: Inhibition of B cell activation in human whole blood (CD69 expression, flow cytometry); format: cell-based; conditions: anti-human IgD 30 µg/ml + IL-4 5 ng/ml, 18 hours, CD69-positive CD19-positive B cells, read-out: IC50 values of inhibitory activity against B cell activation in human whole blood
# Excerpt: Test example 2: Inhibitory activity of compounds of the present disclosure against B cell activation in human whole blood • I. Experimental materials and instruments • 1. Human whole blood (internal recruitment) • 2. Goat F(ab')2 anti-human IgD-UNLB (SouthernBiotech, 2032-01) • 3. DPBS (1x) (Gibco, 14190-144) • 4. Recombinant human IL-4 (Peprotech, 200-04) • 5. Brilliant Violet 421™ anti-human CD19 antibody (Biolegend, 302234) • 6. APC anti-human CD69 antibody (Biolegend, 310910) • 7. APC mouse IgG1, κ isotype control antibody (Biolegend, 400120) • 8. eBioscience™ 10X RBC lysis buffer (multi-species) (Thermo, 004300-54) • 9. NEST 96-well deep-well plate (Wuxi NEST Biotechnology Co., Ltd., 503501) • 10. 96-well round-bottom plate (Corning, 3788) • 11. 96-well flat-bottom plate (Corning, 3599) • 12. Attune™ NxT acoustic focusing cytometer (ThermoFisher Scientific, 4.2.0) • 13. Cell incubator (Thermo, Forma steri-cycle i160) • II. Experimental procedure
# B cells express the B cell receptor (BCR) complex on their surface. When B cells in human whole blood are induced to activate, they can trigger the downstream signalling pathways of the receptor and express the activation marker CD69. The expression of CD69 in activated B cells was detected by flow cytometry, and the IC50 of the compounds were calculated to evaluate the effects of the compounds on BCR activation.
# The test compounds dissolved in 100% DMSO at 20 mM were diluted with 100% DMSO to a concentration of 1 mM, which represents the 200× concentration of the highest compound concentration point in the reaction system. The compounds at this concentration were then subjected to 8-point 4-fold serial dilution with 100% DMSO. The positive control wells were set with 100% DMSO, whereas the negative control wells were set with Remiburtinib at a final concentration of 5 µM. The serially diluted compounds and 100% DMSO were further diluted 10-fold in PBS to achieve the 20× concentration, followed by thorough mixing.
# After thorough mixing, the whole blood sample was transferred to a loading reservoir and then dispensed into a 96-well flat-bottom plate at 80 µl per well. The compound dilution was dispensed at 5 µl per well. The 11th column of each row was designated as the negative control well, with 5 µl of 100 µM positive control drug added to each well. After thorough mixing for 5 min, the plate was incubated in a 37°C incubator for 30 min. Human IgD antibody was diluted 1.67-fold with PBS to a concentration of 300 µg/mL, and 10 µl of the diluted solution was added to each well of the culture plate (final concentration: 30 µg/ml). Human IL-4 (stock solution at 50 µg/ml) was diluted 500-fold with PBS to a concentration of 100 ng/mL, and 5 µl of the diluted solution was added to each well of the culture plate (final concentration: 5 ng/ml). After thorough mixing for 5 min, the plate was cultured in a 37°C incubator with 5% CO2 for 18 hours.
# Flow cytometry detection: CD69-APC, CD19-BV421 and CD4-APC antibodies, and the isotype control antibodies for CD69-APC were removed from 4°C storage. Each antibody was added at 1 µl per well. After thorough mixing for 5 min, the plate was incubated for 30 min at 4°C (refrigerator) in the dark for staining. The 10X RBC lysis buffer was diluted in water to prepare 1X RBC lysis buffer. Aliquots of 1 ml of the lysis buffer were dispensed into each well of a 96-well deep-well plate in advance. The stained samples were transferred into the deep-well plate containing the lysis buffer for erythrocyte lysis. After completing the transfer of an entire plate, the plate was incubated in the dark for 15-20 min. Upon completion of lysis, the plate was centrifuged at 2000 rpm for 4 min. Each well was washed with 1 ml of PBS. Subsequently, the cells were resuspended in 200 µl of PBS, transferred to a 96-well plate, and washed twice more using the same procedure. The samples were resuspended in 200 µl of PBS per well and then subjected to flow cytometry detection. […]
# hERG potassium channels, sequence (Q12809 whole entry): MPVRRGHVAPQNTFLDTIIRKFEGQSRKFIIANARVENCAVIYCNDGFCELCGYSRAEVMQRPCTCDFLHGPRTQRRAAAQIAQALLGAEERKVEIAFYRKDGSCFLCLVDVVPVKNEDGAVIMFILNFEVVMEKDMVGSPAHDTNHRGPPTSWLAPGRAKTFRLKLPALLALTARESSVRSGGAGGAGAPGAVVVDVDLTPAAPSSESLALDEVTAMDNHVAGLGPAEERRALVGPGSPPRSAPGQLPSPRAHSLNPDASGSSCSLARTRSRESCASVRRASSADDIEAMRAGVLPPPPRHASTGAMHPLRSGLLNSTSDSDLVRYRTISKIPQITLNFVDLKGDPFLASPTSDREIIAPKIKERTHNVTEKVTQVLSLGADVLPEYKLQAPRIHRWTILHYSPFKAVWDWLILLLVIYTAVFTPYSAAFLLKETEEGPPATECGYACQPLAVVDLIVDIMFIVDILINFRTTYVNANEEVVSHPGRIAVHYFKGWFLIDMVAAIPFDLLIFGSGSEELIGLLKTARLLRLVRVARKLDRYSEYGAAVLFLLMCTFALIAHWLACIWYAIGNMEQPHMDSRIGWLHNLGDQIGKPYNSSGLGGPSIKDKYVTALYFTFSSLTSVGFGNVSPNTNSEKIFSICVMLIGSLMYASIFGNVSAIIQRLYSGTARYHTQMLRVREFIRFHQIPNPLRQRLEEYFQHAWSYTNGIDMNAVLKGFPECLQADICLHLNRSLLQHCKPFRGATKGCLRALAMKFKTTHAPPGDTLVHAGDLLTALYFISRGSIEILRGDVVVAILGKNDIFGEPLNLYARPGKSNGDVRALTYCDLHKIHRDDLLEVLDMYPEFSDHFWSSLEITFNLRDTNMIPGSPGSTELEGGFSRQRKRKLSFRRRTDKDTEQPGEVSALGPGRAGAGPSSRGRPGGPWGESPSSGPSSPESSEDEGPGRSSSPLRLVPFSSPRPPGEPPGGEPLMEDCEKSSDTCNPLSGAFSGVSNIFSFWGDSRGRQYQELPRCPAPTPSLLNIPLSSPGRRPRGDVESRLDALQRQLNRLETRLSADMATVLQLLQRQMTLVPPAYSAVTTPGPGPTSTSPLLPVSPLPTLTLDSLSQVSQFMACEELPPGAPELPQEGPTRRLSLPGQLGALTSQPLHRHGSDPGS
compound,measurement,setting,value
"C=CC(=O)N(C)CCOc1c(N)ncnc1-c1cc(F)cc(NC(=O)c2cc3c(cc2F)C2(CC2)CO3)c1C [Example 3, N-(3-(6-amino-5-(2-(N-methacrylamido)ethoxy)pyrimidin-4-yl)-5-fluoro-2-methylphenyl)-5-fluoro-2H-spiro[benzofuran-3,1'-cyclopropane]-6-carboxamide]",IC50,hERG potassium channels,> 12300 nM
same,inhibitory effect on skin swelling across doses,"mouse RPA model; 30, 100 and 150 mpk",dose-dependent inhibitory effect
same,inhibition of OVA-induced skin swelling in mice,mouse RPA model; 30 mpk,no statistically significant difference
same,inhibition of OVA-induced skin swelling in mice,mouse RPA model; 100 mpk,significantly inhibited
same,inhibition of OVA-induced skin swelling in mice,mouse RPA model; 150 mpk,significantly inhibited
same,IC50,[1],10 to 100 nM
